Experimental data: patent US9695155B2, “Herbicidal substituted pyrimidinyloxy benzene compounds” (E. I. DU PONT DE NEMOURS AND COMPANY, priority 2013, dated 2017)

Key:
[1] = test system: giant foxtail; assay: Test A postemergence; format: in vivo, Setaria faberii; settings: 0 to 100 scale where 0 is no effect and 100 is complete control
Summary of the method: (§1)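 Scoring: eye-based comparison with untreated controls, 0 for no effect through 100 for complete control, at about day 10. Treatments: directed soil spray preemergence; foliar spray postemergence on 2–10 cm plants at the one- to two-leaf stage. Medium: loam soil with sand.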

[2] = test system: wheat; assay: Test A postemergence; format: in vivo, Triticum aestivum; settings: 500 g ai/ha, 0 to 100 scale where 0 is no effect and 100 is complete control
Summary of the method: as §1

[3] = test system: rice; assay: Test B flooded paddy test; format: in vivo, Oryza sativa; settings: Flood, 250 g ai/ha; 0 to 100 scale where 0 is no effect and 100 is complete control
Summary of the method: (§2)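 2-leaf stage plants; pots flooded to 3 cm, compound added to paddy water, depth maintained. Greenhouse 13–15 d. Visual rating vs untreated controls, 0 (no effect) to 100 (complete control); dash = no result.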

[4] = test system: Heteranthera limosa; assay: Test B flooded paddy test; format: in vivo; settings: Flood, 250 g ai/ha; 0 to 100 scale where 0 is no effect and 100 is complete control
Summary of the method: as §2

[5] = test system: lambsquarters; assay: Test C postemergence; format: in vivo, Chenopodium album; settings: for Plant response rating, Lambsquarters: scale 0 to 100 (0 no effect, 100 complete control)
Summary of the method: (§3)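 Visual injury score versus untreated controls, 0 = no effect, 100 = complete control, taken 13 to 15 days after treatment in the greenhouse. Pre-emergence pots held loam/sand; post-emergence plants grew in sphagnum peat/vermiculite mix and were sprayed at the 1- to 4-leaf stage.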

[6] = test system: morningglory; assay: Test C postemergence; format: in vivo, Ipomoea coccinea; settings: for Plant response rating, Morningglory: scale 0 to 100 (0 no effect, 100 complete control)
Summary of the method: as §3

[7] = test system: pigweed; assay: Test C postemergence; format: in vivo, Amaranthus retroflexus; settings: for Plant response rating, Pigweed: scale 0 to 100 (0 no effect, 100 complete control)
Summary of the method: as §3

[8] = test system: soybean; assay: Test C postemergence; format: in vivo, Glycine max; settings: for Plant response rating, Soybean: scale 0 to 100 (0 no effect, 100 complete control)
Summary of the method: as §3

[9] = test system: oilseed rape; assay: Test C postemergence; format: in vivo, Brassica napus; settings: for Plant response rating, Oilseed Rape: scale 0 to 100 (0 no effect, 100 complete control)
Summary of the method: as §3

[10] = test system: kochia; assay: Test C postemergence; format: in vivo, Kochia scoparia; settings: for Plant response rating, Kochia: scale 0 to 100 (0 no effect, 100 complete control)
Summary of the method: as §3

[11] = test system: velvetleaf; assay: Test C postemergence; format: in vivo, Abutilon theophrasti; settings: for Plant response rating, Velvetleaf: scale 0 to 100 (0 no effect, 100 complete control)
Summary of the method: as §3

[12] = 16 g ai/ha, postemergence, 0 is no effect, 100 is complete control
[13] = 125 g ai/ha, postemergence, visual rating

Clc1cnc(Oc2cccc(Br)c2-n2cc(I)nn2)nc1 [Compound 117]
Plant response rating, Foxtail, Giant ([1]; 125 g ai/ha): 90 | Plant response rating, Foxtail, Giant ([1]; 500 g ai/ha): 90 | Plant response rating, Wheat [2]: 70 | Plant response rating, Rice [3]: 0 | Plant response rating, Ducksalad [4]: 40 | Plant response rating (0 to 100), Lambsquarters [5, 12]: 45 | Plant response rating, Lambsquarters [5, 13]: 75 | Plant response rating, Lambsquarters ([5]; Postemergence, 62 g ai/ha): 50 | Plant response rating (0 to 100), Morningglory [6, 12]: 80 | Plant response rating, Morningglory [6, 13]: 90 | Plant response rating, Morningglory ([6]; Postemergence, 62 g ai/ha): 90 | Plant response rating (0 to 100), Pigweed [7, 12]: 80 | Plant response rating, Pigweed [7, 13]: 90 | Plant response rating, Pigweed ([7]; Postemergence, 62 g ai/ha): 85 | Plant response rating (0 to 100), Soybean [8, 12]: 35 | Plant response rating, Soybean [8, 13]: 50 | Plant response rating, Soybean ([8]; Postemergence, 62 g ai/ha): 50 | Plant response rating (0 to 100), Oilseed Rape [9, 12]: 25 | Plant response rating, Oilseed Rape [9, 13]: 70 | Plant response rating, Oilseed Rape ([9]; Postemergence, 62 g ai/ha): 60 | Plant response rating (0 to 100), Kochia [10, 12]: 90 | Plant response rating, Kochia [10, 13]: 100 | Plant response rating, Kochia ([10]; Postemergence, 62 g ai/ha): 100 | Plant response rating (0 to 100), Velvetleaf [11, 12]: 10 | Plant response rating, Velvetleaf [11, 13]: 45 | Plant response rating, Velvetleaf ([11]; Postemergence, 62 g ai/ha): 30
